Test results published in patent publication US20220249480A1, “APPLICATION OF FLUORO-SUBSTITUTED 2-AMINOTHIAZOLE-5-AROMATIC CARBOXAMIDE” (HUNAN WARRANT PHARMACEUTICAL CO., LTD, priority 2019, published 2022).

Columns and labels:
in vitro = conditions: human, microsomes; for CLint scaled at 1 μM / half-life at 1 μM: pH 7.4
Method: Test compound concentration: 1.0 μM
Buffer solution: 0.05 M phosphate buffer solution (pH 7.4)
Human liver microsomes: Corning® UltraPool™ HLM 150, 20 mg/mL
NADPH concentration: 1.0 mM
Total reaction volume: 850 μL
Incubation temperature: 37° C.
Pre-incubation time: 5 min (no NADPH added)
Sampling time: 0, 5, 10, 15, 20 and 30 min (0, 15 and 30 min for control group)
Sampling volume: 85 μL per time point
Test compounds: Verapamil, Dasatinib, and the compound of Formula I
a) Solutions of 10 mM test compounds in DMSO were diluted to 100 μM using acetonitrile:water (50:50).
c) 2.5 mM NADPH solution was formulated.
d) The liver microsomal protein, buffer solution, and test compound were pipetted sequentially into 1.5 ml incubation tubes according to the volume in the experimental design table, and incubated at 37° C. for 5 min with constant shaking.
e) 85 μL of the quenching reagent was added into a 250 μL quenching vial which was then placed on an ice bath.
f) The reaction was initiated by adding NADPH solution, and 85 μL sample was immediately taken and mixed evenly in the quenching vial with controlled incubation and quenching, this is referred to 0 min sampling point. The sample was capped, vortexed and centrifuged at 4° C.
g) The quenching solution was placed at 4° C. for 10 min for the precipitation of the protein.
h) The operations of other sampling points was similar to that of the 0 min sampling point.
i) The sample quenching reaction mixture solution was thoroughly mixed evenly and centrifuged at 14000 rpm for 10 min at room temperature.
j) The supernatant (˜100 μl) was pipetted for LC-MS analysis.
Instrument: Waters® ACQUITY HPLC-Xevo G2-XS QTof
Chromatographic column: ACQUITY UPLC® BEH C18 column 2.1×50 mm, 1.7 μm
Mobile phase: mobile phase A was 0.1% formic acid in water and mobile phase B was 0.1% formic acid in acetonitrile.
The amount of the parent compound at each time point was determined based on the peak area ratio (compound area/warfarin area).
The intrinsic clearance (CLint) was calculated by the following equation:
V(μL/mg)=volume of incubation (μL)/protein amount in the incubation (mg)

ABL1 = molecular target: T1, ABL1 (Homo sapiens, UniProt P00519); assay: In vitro kinase inhibition activity (33P-ATP radiometric filter assay), ABL1; format: biochemical
T1 construct: purchased Invitrogen
T1 sequence (P00519 whole entry): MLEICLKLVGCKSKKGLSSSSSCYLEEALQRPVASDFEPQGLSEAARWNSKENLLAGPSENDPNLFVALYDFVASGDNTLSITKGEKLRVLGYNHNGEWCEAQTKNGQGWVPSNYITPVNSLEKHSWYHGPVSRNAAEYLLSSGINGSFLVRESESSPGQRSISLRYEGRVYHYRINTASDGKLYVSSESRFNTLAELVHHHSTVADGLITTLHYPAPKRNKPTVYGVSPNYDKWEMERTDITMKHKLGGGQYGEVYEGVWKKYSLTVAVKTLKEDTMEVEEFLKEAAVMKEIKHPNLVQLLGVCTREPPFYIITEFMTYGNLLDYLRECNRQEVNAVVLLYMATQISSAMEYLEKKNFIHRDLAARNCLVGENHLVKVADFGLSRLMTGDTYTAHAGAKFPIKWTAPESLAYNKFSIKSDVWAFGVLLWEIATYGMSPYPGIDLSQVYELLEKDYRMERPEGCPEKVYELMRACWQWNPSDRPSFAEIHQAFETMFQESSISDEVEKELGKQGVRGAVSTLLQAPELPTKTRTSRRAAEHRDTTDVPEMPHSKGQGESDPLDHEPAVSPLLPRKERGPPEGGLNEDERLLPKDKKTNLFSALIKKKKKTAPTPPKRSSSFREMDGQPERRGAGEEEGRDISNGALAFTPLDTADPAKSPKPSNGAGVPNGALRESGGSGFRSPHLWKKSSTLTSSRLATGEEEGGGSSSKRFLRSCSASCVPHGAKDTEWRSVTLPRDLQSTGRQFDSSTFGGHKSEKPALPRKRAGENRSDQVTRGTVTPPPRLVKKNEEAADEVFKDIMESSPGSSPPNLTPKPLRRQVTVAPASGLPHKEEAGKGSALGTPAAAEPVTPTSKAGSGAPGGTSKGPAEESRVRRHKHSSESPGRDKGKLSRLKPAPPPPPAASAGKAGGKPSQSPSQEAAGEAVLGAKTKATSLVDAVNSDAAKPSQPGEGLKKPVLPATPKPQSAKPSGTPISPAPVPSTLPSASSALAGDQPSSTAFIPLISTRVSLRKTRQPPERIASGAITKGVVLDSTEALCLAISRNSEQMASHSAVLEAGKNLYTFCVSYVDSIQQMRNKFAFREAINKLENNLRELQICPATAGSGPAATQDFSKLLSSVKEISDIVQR
Method: (§1) Test group: 50 μl DMSO was used to dissolve the compound of Formula I and Dasatinib, respectively, and the final drug concentration was 10 mM.
(§2) Starting concentration of drugs in the test group: 1 μM
(§3) Buffer solution conditions: 20 mM Hepes (pH 7.5), 10 mM MgCl2, 1 mM EGTA, 0.02% Brij35, 0.02 mg/ml BSA, 0.1 mM Na3VO4, 2 mM DTT, 1% DMSO.
(§4) Note: Required enzyme cofactor were added separately to each kinase reaction.
(§5) a) An indicated substrate was prepared in a freshly made reaction buffer.
(§6) b) Any required enzyme cofactors were added into the substrate solution described above.
(§7) c) The indicated kinase was added into the substrate solution and gently mixed.
(§8) d) The test drugs were added into the kinase reaction mixture using Echo 550.
(§9) e) ^33P-ATP (specific radioactivity 0.01 μCi/μl) was added into the reaction mixture, and the reaction was initiated.
(§10) g) The reaction was spotted onto P81 ion-exchange paper.
(§11) h) The filter was washed with 0.75% phosphoric acid.
(§12) i) The radioactive phosphorylated substrate remaining on the filter paper was measured.
(§13) Kinase activity data are expressed as the percent of the remaining kinase activity in the test samples compared with the reactions of the vehicle (dimethyl sulfoxide). IC50 values and curve fitting were obtained using Prism4 software (GraphPad).

BTK = molecular target: T2, BTK (Homo sapiens, UniProt Q06187); assay: In vitro kinase inhibition activity (33P-ATP radiometric filter assay), BTK; format: biochemical
T2 construct: purchased Invitrogen
T2 sequence (Q06187 whole entry): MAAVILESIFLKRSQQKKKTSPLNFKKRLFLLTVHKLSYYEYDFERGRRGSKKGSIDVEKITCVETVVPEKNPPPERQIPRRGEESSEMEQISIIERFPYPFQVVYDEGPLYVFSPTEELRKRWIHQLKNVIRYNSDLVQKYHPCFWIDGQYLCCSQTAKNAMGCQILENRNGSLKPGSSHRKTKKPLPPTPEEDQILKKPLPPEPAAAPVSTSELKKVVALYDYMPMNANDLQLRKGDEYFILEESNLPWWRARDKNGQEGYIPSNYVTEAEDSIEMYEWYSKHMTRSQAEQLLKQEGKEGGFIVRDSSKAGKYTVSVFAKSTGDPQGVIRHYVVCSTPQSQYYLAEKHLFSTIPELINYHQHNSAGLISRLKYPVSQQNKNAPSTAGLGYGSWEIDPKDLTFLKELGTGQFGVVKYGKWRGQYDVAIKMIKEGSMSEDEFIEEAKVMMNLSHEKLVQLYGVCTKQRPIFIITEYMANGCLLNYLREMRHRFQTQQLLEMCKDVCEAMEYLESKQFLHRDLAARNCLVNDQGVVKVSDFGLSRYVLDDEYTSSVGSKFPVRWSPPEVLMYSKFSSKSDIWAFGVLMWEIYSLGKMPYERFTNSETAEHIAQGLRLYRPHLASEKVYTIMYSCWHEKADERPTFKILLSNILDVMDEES
Method: as §1, §2, §3, §4, §5, §6, §7, §8, §9, §10, §11, §12, §13

BTK (C481S) = molecular target: T3, BTK (C481S) (Homo sapiens, UniProt Q06187, C481S); assay: In vitro kinase inhibition activity (33P-ATP radiometric filter assay), BTK (C481S); format: biochemical
T3 construct: purchased Signal Chem
T3 sequence (Q06187 whole entry C481S): as the sequence (Q06187 whole entry) above, with C481S counted along it
Method: as §1, §2, §3, §4, §5, §6, §7, §8, §9, §10, §11, §12, §13

Clearance (in vitro)	CLint scaled at 1 μM (in vitro)	half-life at 1 μM (in vitro)	IC50 (ABL1; ABL1 0.1 nM, ABLtide 20 μM, ATP 10 μM, 15 min compound incubation, 2 h reaction)	Ratio Dasatinib/the compound of Formula I (ABL1; ratio of IC50 values, ABL1)	IC50 (BTK; BTK 8 nM, pEY 0.2 mg/ml, ATP 10 μM, 15 min compound incubation, 2 h reaction)	Ratio Dasatinib/the compound of Formula I (BTK; ratio of IC50 values, BTK)	IC50 (BTK (C481S); BTK (C481S) 6 nM, pEY 0.2 mg/ml, ATP 10 μM, 15 min compound incubation, 2 h reaction)	Ratio Dasatinib/the compound of Formula I (BTK (C481S); ratio of IC50 values, BTK (C481S))	Compound
0.0635 min⁻¹	211 mL/min/kg	10.9 min	–	–	–	–	–	–	Cc1nc(Nc2ncc(C(=O)Nc3c(C)cccc3Cl)s2)cc(N2CCN(CCO)CC2)n1 [Dasatinib, reference compound]
0.0426 min⁻¹	142 mL/min/kg	16.3 min	4.2 pM	5.95	157 pM	3.32	32 pM	3.53	Cc1nc(Nc2ncc(C(=O)Nc3c(C)cc(F)cc3Cl)s2)cc(N2CCN(CCO)CC2)n1 [The compound of Formula I, N-(2-chloro-4-fluoro-6-methylphenyl)-2-[[6-[4-(2-hydroxyethyl)-1-piperazinyl]-2-methyl-4-pyrimidinyl]amino]-5-thiazolecarboxamide]
